Assay results: the supplement of paper PMC11451515

Test system: NOMO1
Experiment: cell viability relative to DMSO control; higher = less cytotoxic
Conditions: 48 h
Outline: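 Viability is expressed as a percentage of DMSO wells within each plate, and cell-free wells serve as background. Seeding densities in the 1536-well plates (5 μl) were 500 cells/well for NOMO1 or SEM leukemia cells and 1000 cells/well for P12-Ichikawa. Each line was adapted for at least four passages in each medium. Library compounds in DMSO were pin-dosed at 47 μM to 0.79 nM (11 points, threefold), and CellTiter-Glo One luminescence was read after 48 h at 37°C.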

[1] = HPLM + 10% dialyzed FBS, 0.000781 µM
[2] = HPLM + 10% dialyzed FBS, 0.00234 µM
[3] = HPLM + 10% dialyzed FBS, 0.00702 µM
[4] = HPLM + 10% dialyzed FBS, 0.0211 µM
[5] = HPLM + 10% dialyzed FBS, 0.0632 µM
[6] = HPLM + 10% dialyzed FBS, 0.19 µM
[7] = HPLM + 10% dialyzed FBS, 0.569 µM
[8] = HPLM + 10% dialyzed FBS, 1.71 µM
[9] = HPLM + 10% dialyzed FBS, 5.12 µM
[10] = HPLM + 10% dialyzed FBS, 15.4 µM
[11] = HPLM + 10% dialyzed FBS, 46.1 µM
[12] = RPMI 5 mM glucose + 10% FBS, 0.000781 µM
[13] = RPMI 5 mM glucose + 10% FBS, 0.00234 µM
[14] = RPMI 5 mM glucose + 10% FBS, 0.00702 µM
[15] = RPMI 5 mM glucose + 10% FBS, 0.0211 µM
[16] = RPMI 5 mM glucose + 10% FBS, 0.0632 µM
[17] = RPMI 5 mM glucose + 10% FBS, 0.19 µM
[18] = RPMI 5 mM glucose + 10% FBS, 0.569 µM
[19] = RPMI 5 mM glucose + 10% FBS, 1.71 µM
[20] = RPMI 5 mM glucose + 10% FBS, 5.12 µM
[21] = RPMI 5 mM glucose + 10% FBS, 15.4 µM
[22] = RPMI 5 mM glucose + 10% FBS, 46.1 µM
[23] = RPMI 5 mM glucose + 10% dialyzed FBS, 0.000781 µM
[24] = RPMI 5 mM glucose + 10% dialyzed FBS, 0.00234 µM
[25] = RPMI 5 mM glucose + 10% dialyzed FBS, 0.00702 µM
[26] = RPMI 5 mM glucose + 10% dialyzed FBS, 0.0211 µM
[27] = RPMI 5 mM glucose + 10% dialyzed FBS, 0.0632 µM
[28] = RPMI 5 mM glucose + 10% dialyzed FBS, 0.19 µM
[29] = RPMI 5 mM glucose + 10% dialyzed FBS, 0.569 µM
[30] = RPMI 5 mM glucose + 10% dialyzed FBS, 1.71 µM
[31] = RPMI 5 mM glucose + 10% dialyzed FBS, 5.12 µM
[32] = RPMI 5 mM glucose + 10% dialyzed FBS, 15.4 µM
[33] = RPMI 5 mM glucose + 10% dialyzed FBS, 46.1 µM

Structure (SMILES) | cell viability [1] [%] | cell viability [2] [%] | cell viability [3] [%] | cell viability [4] [%] | cell viability [5] [%] | cell viability [6] [%] | cell viability [7] [%] | cell viability [8] [%] | cell viability [9] [%] | cell viability [10] [%] | cell viability [11] [%] | cell viability [12] [%] | cell viability [13] [%] | cell viability [14] [%] | cell viability [15] [%] | cell viability [16] [%] | cell viability [17] [%] | cell viability [18] [%] | cell viability [19] [%] | cell viability [20] [%] | cell viability [21] [%] | cell viability [22] [%] | cell viability [23] [%] | cell viability [24] [%] | cell viability [25] [%] | cell viability [26] [%] | cell viability [27] [%] | cell viability [28] [%] | cell viability [29] [%] | cell viability [30] [%] | cell viability [31] [%] | cell viability [32] [%] | cell viability [33] [%]
CNC(=O)c1ccc2cc(C3(O)CCn4cncc43)ccc2c1 (centres undefined) | 124 | 131 | 121 | 127 | 143 | 118 | 126 | 137 | 113 | 98.1 | 112 | 105 | 117 | 103 | 120 | 110 | 96.8 | 102 | 96.8 | 108 | 99.7 | 114 | – | – | – | – | – | – | – | – | – | – | –
Cc1coc2c1C(=O)C(=O)c1c-2ccc2c(C)cccc12 | – | – | – | – | – | – | – | – | – | – | – | 126 | 113 | 125 | 110 | 112 | 128 | 118 | 114 | 89.4 | 103 | 91.2 | 116 | 111 | 111 | 113 | 117 | 108 | 106 | 130 | 97.7 | 105 | 106
COC\1=C(/OC)C(=O)\C(=C(C)/C1=O)CCCCCCCCCCO | 97.4 | 132 | 118 | 148 | 114 | 134 | 153 | 154 | 148 | 122 | 61.6 | – | – | – | – | – | – | – | – | – | – | – | – | – | – | – | – | – | – | – | – | – | –
O=C1c2ccccc2-[n+]2ccc3c([nH]c4ccccc43)c21 | 106 | 114 | 125 | 93.1 | 103 | 120 | 104 | 99.6 | 62 | 2.96 | 2.32 | 98 | 115 | 104 | 110 | 112 | 103 | 112 | 108 | 87 | 3.28 | 2.18 | 91.3 | 116 | 107 | 97.1 | 98.5 | 126 | 101 | 102 | 66.4 | 3.34 | 2
COCC1(CO)C(=O)C2CCN1CC2 (centres undefined) | 116 | 106 | 103 | 123 | 104 | 121 | 92.4 | 130 | 105 | 60.1 | 31.7 | 91.9 | 95.4 | 102 | 106 | 107 | 104 | 103 | 100 | 111 | 79 | 18.1 | 93.8 | 110 | 94.6 | 98.8 | 115 | 108 | 90.9 | 94.6 | 104 | 94.8 | 50.2
Cc1ccccc1C(=O)c1ccc(Nc2ccc(Br)cc2N)cc1Cl | – | – | – | – | – | – | – | – | – | – | – | 107 | 123 | 116 | 122 | 120 | 113 | 110 | 121 | 116 | 103 | 90.1 | 131 | 116 | 112 | 120 | 118 | 126 | 107 | 121 | 114 | 93.7 | 71.5
Cc1onc(-c2ccccc2Cl)c1C(=O)N[C@@H]1C(=O)N2[C@@H]1SC(C)(C)[C@@H]2C(=O)[O-] | 104 | 104 | 123 | 116 | 98.9 | 103 | 105 | 113 | 92.8 | 105 | 84.7 | 112 | 119 | 134 | 110 | 104 | 115 | 115 | 107 | 99.5 | 97.9 | 94.3 | 117 | 124 | 123 | 103 | 111 | 103 | 102 | 108 | 110 | 84.1 | 96.3
C[C@](O)(CS(=O)(=O)c1ccc(F)cc1)C(=O)Nc1ccc(C#N)c(C(F)(F)F)c1 | 106 | 100 | 111 | 121 | 126 | 128 | 104 | 123 | 115 | 116 | 134 | 103 | 108 | 128 | 140 | 133 | 141 | 134 | 128 | 126 | 133 | 137 | 112 | 119 | 132 | 135 | 127 | 124 | 129 | 131 | 129 | 120 | 131
